From article PMC12454493, “Insight on novel sulfamoylphenyl pyrazole derivatives as anticancer carbonic anhydrase inhibitors” (Molecular Diversity, 2024)
Where “and” joins values, the source holds several entries; their conditions need not be identical. Identical values can stand only once.

How the values were obtained:
CCRF-CEM = assay: NCI-60 one-dose SRB screen (Leukemia); format: cell-based; conditions: Homo sapiens, single dose 10 µM, 48 h, read-out: Growth inhibition percent (GI %)
HL-60(TB) = assay: NCI-60 one-dose SRB screen (Leukemia); format: cell-based; conditions: Homo sapiens, single dose 10 µM, 48 h, read-out: Growth inhibition percent (GI %)
K-562 = assay: NCI-60 one-dose SRB screen (Leukemia); format: cell-based; conditions: Homo sapiens, K562, single dose 10 µM, 48 h, read-out: Growth inhibition percent (GI %)
MOLT-4 = assay: NCI-60 one-dose SRB screen (Leukemia); format: cell-based; conditions: Homo sapiens, single dose 10 µM, 48 h, read-out: Growth inhibition percent (GI %)
RPMI-8226 = assay: NCI-60 one-dose SRB screen (Leukemia); format: cell-based; conditions: Homo sapiens, single dose 10 µM, 48 h, read-out: Growth inhibition percent (GI %)
SR = assay: NCI-60 one-dose SRB screen (Leukemia); format: cell-based; conditions: Homo sapiens, single dose 10 µM, 48 h, read-out: Growth inhibition percent (GI %)
A549/ATCC = assay: NCI-60 one-dose SRB screen (Non-Small Cell Lung Cancer); format: cell-based; conditions: Homo sapiens, single dose 10 µM, 48 h, read-out: Growth inhibition percent (GI %)
EKVX = assay: as above; format: cell-based; conditions: Homo sapiens, single dose 10 µM, 48 h, read-out: Growth inhibition percent (GI %)
HOP-62 = assay: as above; format: cell-based; conditions: Homo sapiens, single dose 10 µM, 48 h, read-out: Growth inhibition percent (GI %)
HOP-92 = assay: as above; format: cell-based; conditions: Homo sapiens, single dose 10 µM, 48 h, read-out: Growth inhibition percent (GI %)
NCI-H226 = assay: as above; format: cell-based; conditions: Homo sapiens, single dose 10 µM, 48 h, read-out: Growth inhibition percent (GI %)
NCI-H23 = assay: as above; format: cell-based; conditions: Homo sapiens, single dose 10 µM, 48 h, read-out: Growth inhibition percent (GI %)
NCI-H322M = assay: as above; format: cell-based; conditions: Homo sapiens, single dose 10 µM, 48 h, read-out: Growth inhibition percent (GI %)
NCI-H460 = assay: as above; format: cell-based; conditions: Homo sapiens, single dose 10 µM, 48 h, read-out: Growth inhibition percent (GI %)
NCI-H522 = assay: as above; format: cell-based; conditions: Homo sapiens, single dose 10 µM, 48 h, read-out: Growth inhibition percent (GI %)
COLO 205 = assay: NCI-60 one-dose SRB screen (Colon Cancer); format: cell-based; conditions: Homo sapiens, single dose 10 µM, 48 h, read-out: Growth inhibition percent (GI %)
HCC-2998 = assay: NCI-60 one-dose SRB screen (Colon Cancer); format: cell-based; conditions: Homo sapiens, single dose 10 µM, 48 h, read-out: Growth inhibition percent (GI %)
HCT-116 = assay: NCI-60 one-dose SRB screen (Colon Cancer); format: cell-based; conditions: Homo sapiens, single dose 10 µM, 48 h, read-out: Growth inhibition percent (GI %)
HCT-15 = assay: NCI-60 one-dose SRB screen (Colon Cancer); format: cell-based; conditions: Homo sapiens, single dose 10 µM, 48 h, read-out: Growth inhibition percent (GI %)
HT29 = assay: NCI-60 one-dose SRB screen (Colon Cancer); format: cell-based; conditions: Homo sapiens, HT-29, single dose 10 µM, 48 h, read-out: Growth inhibition percent (GI %)
KM12 = assay: NCI-60 one-dose SRB screen (Colon Cancer); format: cell-based; conditions: Homo sapiens, single dose 10 µM, 48 h, read-out: Growth inhibition percent (GI %)
SW-620 = assay: NCI-60 one-dose SRB screen (Colon Cancer); format: cell-based; conditions: Homo sapiens, single dose 10 µM, 48 h, read-out: Growth inhibition percent (GI %)
SF-268 = assay: NCI-60 one-dose SRB screen (CNS Cancer); format: cell-based; conditions: Homo sapiens, single dose 10 µM, 48 h, read-out: Growth inhibition percent (GI %)
SF-295 = assay: NCI-60 one-dose SRB screen (CNS Cancer); format: cell-based; conditions: Homo sapiens, single dose 10 µM, 48 h, read-out: Growth inhibition percent (GI %)
SF-539 = assay: NCI-60 one-dose SRB screen (CNS Cancer); format: cell-based; conditions: Homo sapiens, single dose 10 µM, 48 h, read-out: Growth inhibition percent (GI %)
SNB-19 = assay: NCI-60 one-dose SRB screen (CNS Cancer); format: cell-based; conditions: Homo sapiens, single dose 10 µM, 48 h, read-out: Growth inhibition percent (GI %)
SNB-75 = assay: NCI-60 one-dose SRB screen (CNS Cancer); format: cell-based; conditions: Homo sapiens, single dose 10 µM, 48 h, read-out: Growth inhibition percent (GI %)
U251 = assay: NCI-60 one-dose SRB screen (CNS Cancer); format: cell-based; conditions: Homo sapiens, U-251, single dose 10 µM, 48 h, read-out: Growth inhibition percent (GI %)
M14 = assay: NCI-60 one-dose SRB screen (Melanoma); format: cell-based; conditions: Homo sapiens, single dose 10 µM, 48 h, read-out: Growth inhibition percent (GI %)
MALME-3M = assay: NCI-60 one-dose SRB screen (Melanoma); format: cell-based; conditions: Homo sapiens, single dose 10 µM, 48 h, read-out: Growth inhibition percent (GI %)
MDA-MB-435 = assay: NCI-60 one-dose SRB screen (Melanoma); format: cell-based; conditions: Homo sapiens, single dose 10 µM, 48 h, read-out: Growth inhibition percent (GI %)
SK-MEL-28 = assay: NCI-60 one-dose SRB screen (Melanoma); format: cell-based; conditions: Homo sapiens, single dose 10 µM, 48 h, read-out: Growth inhibition percent (GI %)
SK-MEL-5 = assay: NCI-60 one-dose SRB screen (Melanoma); format: cell-based; conditions: Homo sapiens, single dose 10 µM, 48 h, read-out: Growth inhibition percent (GI %)
UACC-257 = assay: NCI-60 one-dose SRB screen (Melanoma); format: cell-based; conditions: Homo sapiens, single dose 10 µM, 48 h, read-out: Growth inhibition percent (GI %)
UACC-62 = assay: NCI-60 one-dose SRB screen (Melanoma); format: cell-based; conditions: Homo sapiens, single dose 10 µM, 48 h, read-out: Growth inhibition percent (GI %)
786-0 = assay: NCI-60 one-dose SRB screen (Renal Cancer); format: cell-based; conditions: Homo sapiens, single dose 10 µM, 48 h, read-out: Growth inhibition percent (GI %)
A498 = assay: NCI-60 one-dose SRB screen (Renal Cancer); format: cell-based; conditions: Homo sapiens, single dose 10 µM, 48 h, read-out: Growth inhibition percent (GI %)
ACHN = assay: NCI-60 one-dose SRB screen (Renal Cancer); format: cell-based; conditions: Homo sapiens, single dose 10 µM, 48 h, read-out: Growth inhibition percent (GI %)
CAKI-1 = assay: NCI-60 one-dose SRB screen (Renal Cancer); format: cell-based; conditions: Homo sapiens, single dose 10 µM, 48 h, read-out: Growth inhibition percent (GI %)
RXF 393 = assay: NCI-60 one-dose SRB screen (Renal Cancer); format: cell-based; conditions: Homo sapiens, single dose 10 µM, 48 h, read-out: Growth inhibition percent (GI %)
SN12C = assay: NCI-60 one-dose SRB screen (Renal Cancer); format: cell-based; conditions: Homo sapiens, single dose 10 µM, 48 h, read-out: Growth inhibition percent (GI %)
TK-10 = assay: NCI-60 one-dose SRB screen (Renal Cancer); format: cell-based; conditions: Homo sapiens, single dose 10 µM, 48 h, read-out: Growth inhibition percent (GI %)
UO-31 = assay: NCI-60 one-dose SRB screen (Renal Cancer); format: cell-based; conditions: Homo sapiens, single dose 10 µM, 48 h, read-out: Growth inhibition percent (GI %)
hCA IX = hCA IX (Homo sapiens, UniProt Q16790); assay: CA inhibitory activity, spectrophotometric p-NPA assay; format: biochemical; conditions: p-NPA substrate, pH 7.5, 25 °C, triplicate; read-out: IC50 (µM) ± SD hCA IX
hCA XII = hCA XII (Homo sapiens, UniProt O43570); assay: as above; format: biochemical; conditions: for IC50: p-NPA substrate, pH 7.5, 25 °C, triplicate, read-out: IC50 (µM) ± SD hCA XII
hCA XII, sequence (O43570 25-354): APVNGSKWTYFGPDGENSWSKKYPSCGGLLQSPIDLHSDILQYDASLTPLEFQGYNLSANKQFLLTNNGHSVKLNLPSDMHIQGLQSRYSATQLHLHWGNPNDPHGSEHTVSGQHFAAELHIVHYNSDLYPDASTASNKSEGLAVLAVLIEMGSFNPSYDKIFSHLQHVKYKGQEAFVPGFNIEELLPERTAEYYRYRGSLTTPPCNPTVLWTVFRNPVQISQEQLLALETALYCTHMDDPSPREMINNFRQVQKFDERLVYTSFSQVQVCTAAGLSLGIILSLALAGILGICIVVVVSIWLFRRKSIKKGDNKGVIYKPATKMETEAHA

SK-MEL-2 = assay: NCI-60 one-dose SRB screen (Melanoma); format: cell-based; conditions: Homo sapiens, single dose 10 µM, 48 h, read-out: Growth inhibition percent (GI %)

Work on `NS(=O)(=O)c1ccc(NC(=O)COC(=O)c2cn(-c3ccc(S(N)(=O)=O)cc3)nc2-c2ccc(Br)cc2)cc1` [Compound 4d, 2-Oxo-2-[(4-sulfamoylphenyl)amino] ethyl 3-(4-bromophenyl)-1-(4-sulfamoylphenyl)-1H-pyrazole-4-carboxylate] yielded an inhibition at 10 µM (CCRF-CEM) of 60.2%, an inhibition at 10 µM (HL-60(TB)) of 37.6% and an inhibition at 10 µM (K-562) of 82.5%. It also gave an inhibition at 10 µM (MOLT-4) of 60.1%, an inhibition at 10 µM (RPMI-8226) of under 5% and an inhibition at 10 µM (SR) of 22.9%. For the same compound, the inhibition at 10 µM (A549/ATCC) was under 5%, the inhibition at 10 µM (EKVX) was 21% and the inhibition at 10 µM (HOP-62) was under 5%. It also gave an inhibition at 10 µM (HOP-92) of 49.6%, an inhibition at 10 µM (NCI-H226) of under 5% and an inhibition at 10 µM (NCI-H23) of under 5%. For the same compound, the inhibition at 10 µM (NCI-H322M) was 21.5%, the inhibition at 10 µM (NCI-H460) was under 5% and the inhibition at 10 µM (NCI-H522) was 19.8%. For the same compound, the inhibition at 10 µM (COLO 205) was 8.46%, the inhibition at 10 µM (HCC-2998) was under 5% and the inhibition at 10 µM (HCT-116) was 84.6%. For the same compound, the inhibition at 10 µM (HCT-15) was 10.6%, the inhibition at 10 µM (HT29) was under 5% and the inhibition at 10 µM (KM12) was under 5%. For the same compound, the inhibition at 10 µM (SW-620) was under 5%, the inhibition at 10 µM (SF-268) was 34.8% and the inhibition at 10 µM (SF-295) was under 5%. It also gave an inhibition at 10 µM (SF-539) of 26.7%, an inhibition at 10 µM (SNB-19) of 24.1% and an inhibition at 10 µM (SNB-75) of 64.3%. It also gave an inhibition at 10 µM (U251) of 25%, an inhibition at 10 µM (M14) of 79.6% and an inhibition at 10 µM (MALME-3M) of under 5%. The inhibition at 10 µM (MDA-MB-435) was 60.1%, the inhibition at 10 µM (SK-MEL-28) was under 5% and the inhibition at 10 µM (SK-MEL-5) was 14.3%. For the same compound, the inhibition at 10 µM (UACC-257) was under 5%, the inhibition at 10 µM (UACC-62) was 11.9% and the inhibition at 10 µM (786-0) was 86.5%. The inhibition at 10 µM (A498) was 16.8%, the inhibition at 10 µM (ACHN) was under 5% and the inhibition at 10 µM (CAKI-1) was 63.5%. For the same compound, the inhibition at 10 µM (RXF 393) was under 5%, the inhibition at 10 µM (SN12C) was 11.8% and the inhibition at 10 µM (TK-10) was under 5%. For the same compound, the inhibition at 10 µM (UO-31) was 23.2%, the IC50 (hCA IX) was 0.5 µM and 0.509 µM and the IC50 (hCA XII) was 0.81 µM and 0.814 µM.

`CCOC(=O)c1ccc(NC(=O)COC(=O)c2cn(-c3ccc(S(N)(=O)=O)cc3)nc2-c2ccc(C)cc2)cc1` [Compound 5b, 2-[(4-(Ethoxycarbonyl)phenyl)amino]-2-oxoethyl 1-(4-sulfamoylphenyl)-3-(p-tolyl)-1H-pyrazole-4-carboxylate] gave an inhibition at 10 µM (CCRF-CEM) of 75.4%, an inhibition at 10 µM (HL-60(TB)) of 70.2% and an inhibition at 10 µM (K-562) of 74.5%. It also gave an inhibition at 10 µM (MOLT-4) of 83.8%, an inhibition at 10 µM (RPMI-8226) of 64.1% and an inhibition at 10 µM (SR) of 73.4%. It also gave an inhibition at 10 µM (A549/ATCC) of 51.1%, an inhibition at 10 µM (EKVX) of 55.6% and an inhibition at 10 µM (HOP-62) of under 5%. The inhibition at 10 µM (HOP-92) was 56.3%, the inhibition at 10 µM (NCI-H226) was 43% and the inhibition at 10 µM (NCI-H23) was 40.3%. It also gave an inhibition at 10 µM (NCI-H322M) of 23.7%, an inhibition at 10 µM (NCI-H460) of 60.8% and an inhibition at 10 µM (NCI-H522) of 49%. The inhibition at 10 µM (COLO 205) was 42.3%, the inhibition at 10 µM (HCC-2998) was 47% and the inhibition at 10 µM (HCT-116) was 60.7%. For the same compound, the inhibition at 10 µM (HCT-15) was 65.7%, the inhibition at 10 µM (HT29) was 64.4% and the inhibition at 10 µM (KM12) was 70.3%. For the same compound, the inhibition at 10 µM (SW-620) was 37%, the inhibition at 10 µM (SF-268) was 55.4% and the inhibition at 10 µM (SF-295) was 54.8%. The inhibition at 10 µM (SF-539) was 60.9%, the inhibition at 10 µM (SNB-19) was 48.4% and the inhibition at 10 µM (SNB-75) was 62.9%. For the same compound, the inhibition at 10 µM (U251) was 54.1%, the inhibition at 10 µM (M14) was 56.9% and the inhibition at 10 µM (MALME-3M) was 35.5%. It also gave an inhibition at 10 µM (MDA-MB-435) of 47.3%, an inhibition at 10 µM (SK-MEL-28) of 48.2% and an inhibition at 10 µM (SK-MEL-2) of 27.9%. For the same compound, the inhibition at 10 µM (SK-MEL-5) was 39.3%, the inhibition at 10 µM (UACC-257) was 39.1% and the inhibition at 10 µM (UACC-62) was 53.4%. For the same compound, the inhibition at 10 µM (786-0) was 66%, the inhibition at 10 µM (A498) was 31.7% and the inhibition at 10 µM (ACHN) was 52.8%. The inhibition at 10 µM (CAKI-1) was 70.2%, the inhibition at 10 µM (RXF 393) was 73.2% and the inhibition at 10 µM (SN12C) was 38.2%. For the same compound, the inhibition at 10 µM (TK-10) was 14%, the inhibition at 10 µM (UO-31) was 58.8% and the Ki (hCA XII) was 106 nM. For the same compound, the IC50 (hCA XII) was 0.1 µM and 0.106 µM.
